The IC50 is the concentration that inhibits the measured activity by half.

In the experiment the test system is HeLa cells. As to the kind of experiment: Measurement of the cell cycle inhibition in HeLa cells. It is filed as cell-based. As to conditions: HeLa B cells, 20 h incubation with compound; FACS ratio G0/G1 to G2/M vs DMSO; concentration at which 50% of cells are in cell cycle arrest. The method, then:
Measurement of the Cell Cycle Inhibition in HeLa Cells—Test Procedure:
HeLa B cells are grown in DMEM (Life Technologies Cat No 21969-035) supplemented with 10% Fetal Calf Serum (FCS, Life Technologies Cat No 10270-106) in 180 cm^2 Flasks at 37° C., 92% humidity and 7% CO2.
Cells are seeded at 5×10^4 cells per well in a 24-well plate. Twenty hours later the compounds are added such that the final concentration is 1×10^−6, 3.3×10^−7, 1.1×10^−7, 3.7×10^−8, 1.2×10^−8 and 1×10^−9 M in a final volume of 500 μl. DMSO alone is added to 6 wells as a control. Cells are incubated with the compounds as above for 20 h. Then cells are observed under the microscope to check for cell death, and the 24-well plate is then centrifuged at 1200 rpm for 5 min at 20° C., acceleration position 7 and break position 5 (Eppendorf centrifuge 5804R).
The supernatant is removed and the cells lysed with 0.5 ml RNase Buffer (10 mM NaCitrate, 0.1% Nonidet NP40, 50 μg/ml RNase, 10 μg/ml Propidium iodide) per well. The plates are then incubated for at least 30 min in the dark at RT and the samples then transferred to FACS tubes. Samples are measured in a FACS machine (Beckton Dickinson) at the following settings:
Instrument Settings of the FACS Calibur:
The ratio of cells in G0/G1-phase to G2/M phase is calculated and compared to the value for the controls (DMSO) only. Results are given in table 2 as the IC50 value calculated from the concentration curve plotted against the cell cycle ratio and indicate the compound concentration at which 50% of cells are in cell cycle arrest after treatment with the compound.
Take `CC(C)c1ccn(-c2nc(Cl)c(-c3c(F)cc(F)cc3F)c(N[C@@H](C)C(F)(F)F)n2)n1` [Example 5]: the IC50 came to 4.6 nM.

For `Cc1ccnc(-c2nc(Cl)c(-c3c(F)cc(F)cc3F)c(NC(C)C)n2)c1` [Example 15], the IC50 worked out at 43 nM. As to `CNC(=O)c1nc(Cl)c(-c2c(F)cc(F)cc2F)c(N[C@@H](C)C(F)(F)F)n1` [Example 174], the IC50 is 42 nM.

With `CC(C)Nc1nc(-n2ccc(C(C)C)n2)nc(Cl)c1-c1c(F)cc(F)cc1F` [Example 22], the IC50 was found to be 32 nM. For `CC1CCCCN1c1nc(-n2cncn2)nc(Cl)c1-c1ccc(F)cc1F` (centres unmarked) [Example 141], the IC50 was 46 nM. As for `CC1CCCCN1c1nc(-n2cccn2)nc(Cl)c1-c1c(F)cccc1F` (centres unmarked) [Example 125], the IC50 came to 38 nM. Under `CCC(C)Nc1nc(-n2cncn2)nc(Cl)c1-c1c(C)cccc1F` (centres unmarked) [Example 110] stands 25 nM.

Regarding `CCC(C)Nc1nc(-n2cccn2)nc(Cl)c1-c1ccc(C)cc1F` (centres unmarked) [Example 97], the IC50 stood at 13 nM. `Cc1nc(-n2ccnn2)nc(N[C@@H](C)C(F)(F)F)c1-c1c(F)cc(F)cc1F` [Example 157]: the IC50 was found to be 19 nM. Under `CC(C)Nc1nc(-c2ccccn2)nc(Cl)c1-c1c(F)cccc1F` [Example 83] stands 37 nM. Turning to `CON=C(N)c1nc(Cl)c(-c2c(F)cccc2Cl)c(N[C@@H](C)C(F)(F)F)n1` [Example 214], the half-inhibitory concentration (IC50) was determined as 18 nM. Turning to `CC1CCCCN1c1nc(-n2cccn2)nc(Cl)c1-c1c(F)cc(F)cc1F` (centres unmarked) [Example 96], the IC50 amounted to 29 nM.

For `CCC(C)Nc1nc(-n2cncn2)nc(Cl)c1-c1c(F)cccc1F` (centres unmarked) [Example 113], the IC50 is 49 nM. Under `C[C@H](Nc1nc(C(N)=O)nc(Cl)c1-c1c(F)cc(F)cc1F)C(F)(F)F` [Example 159] stands 23 nM.

For `CC1CCN(c2nc(-c3cccnn3)nc(Cl)c2-c2c(F)cc(F)cc2F)CC1` [Example 79], the IC50 worked out at 21 nM. As for `CC(C)[C@H](C)Nc1nc(C(N)=NO)nc(Cl)c1-c1c(F)cc(F)cc1F` [Example 145], the IC50 was found to be 23 nM. Turning to `CC(C)C(C)Nc1nc(-c2cccnn2)nc(Cl)c1-c1c(F)cc(F)cc1F` (centres unmarked) [Example 80], the IC50 turned out to be 26 nM. As for `C=CCN(C)c1nc(-n2cc(Br)cn2)nc(Cl)c1-c1c(F)cc(F)cc1F` [Example 123], the IC50 is 49 nM.

As for `CCC(C)Nc1nc(-n2ccc(N)n2)nc(Cl)c1-c1c(F)cccc1Cl` (centres unmarked) [Example 148], the IC50 was found to be 34 nM. As for `O=C1CCCN1c1nc(Cl)c(-c2c(F)cc(F)cc2F)c(NCC(F)(F)F)n1` [Example 210], the IC50 was found to be 39 nM.

Take `CC1CCN(c2nc(-n3ccnn3)nc(Cl)c2-c2c(F)cc(F)cc2F)CC1` [Example 29]: the IC50 stood at 17 nM. As to `C=CCN(C)c1nc(-n2ccnn2)nc(Cl)c1-c1c(F)cc(F)cc1F` [Example 206], the IC50 worked out at 20 nM. For `C[C@H](Nc1nc(-c2cnccn2)nc(Cl)c1-c1c(F)cc(F)cc1F)C(F)(F)F` [Example 27], the IC50 turned out to be 3.5 nM. With `CCC(C)Nc1nc(-n2ccnn2)nc(Cl)c1-c1c(F)cccc1F` (centres unmarked) [Example 114] the figure was 41 nM. Turning to `Cc1cccc(-c2nc(Cl)c(-c3c(F)cc(F)cc3F)c(N[C@@H](C)C(F)(F)F)n2)n1` [Example 13], the IC50 came out at 16 nM.

Consider `CC1CCN(c2nc(-n3cccn3)nc(Cl)c2-c2c(F)cccc2F)CC1` [Example 115], for which the IC50 came out at 23 nM. With `CCOC(=O)C(C)C=NNc1nc(Cl)c(-c2c(F)cc(F)cc2F)c(N[C@@H](C)C(F)(F)F)n1` (some centres unmarked) [Example 152], the IC50 was determined as 24 nM.

For `CC1CCN(c2nc(-n3ccnn3)nc(Cl)c2-c2ccc(F)cc2Cl)CC1` [Example 119], the IC50 turned out to be 48 nM. For the molecule `CC(Nc1nc(-c2cccnn2)nc(Cl)c1-c1c(F)cc(F)cc1F)C(F)(F)F` (centres unmarked) [Example 78], the IC50 was 21 nM. On to `CC1CCCCN1c1nc(-n2cccn2)nc(Br)c1-c1c(F)cc(F)cc1F` (centres unmarked) [Example 161], for which the IC50 came out at 50 nM. For the molecule `C=CCN(C)c1nc(-n2cccn2)nc(Cl)c1-c1c(F)cc(F)cc1F` [Example 142], the IC50 was 39 nM. `C[C@H](Nc1nc(-n2cccn2)nc(Br)c1-c1c(F)cc(F)cc1F)C(F)(F)F` [Example 207]: the IC50 was determined as 15 nM.

Turning to `C[C@H](Nc1nc(-n2nccn2)nc(Br)c1-c1c(F)cc(F)cc1F)C(F)(F)F` [Example 165], the IC50 stood at 30 nM.

On to `CON=C(N)c1nc(Cl)c(-c2c(F)cccc2F)c(N[C@@H](C)C(C)C)n1` [Example 196], for which the IC50 is 38 nM. As for `CC1CCCN1c1nc(-n2cccn2)nc(Cl)c1-c1c(F)cccc1F` (centres unmarked) [Example 140], the IC50 came out at 20 nM.

On to `COc1c(C)cnn1-c1nc(Cl)c(-c2c(F)cc(F)cc2F)c(N[C@@H](C)C(F)(F)F)n1` [Example 154], for which the IC50 was 26 nM. Under `CCCC(C)Nc1nc(-n2ccc(N)n2)nc(Cl)c1-c1ccc(C)cc1F` (centres unmarked) [Example 121] stands 50 nM.

Regarding `COc1cc(F)c(-c2c(Cl)nc(-n3cccn3)nc2N2CCC(C)CC2)c(F)c1` [Example 67], the IC50 stood at 13 nM. Take `CC1CCCN1c1nc(-n2cccn2)nc(Cl)c1-c1c(F)cc(F)cc1F` (centres unmarked) [Example 74]: the IC50 came out at 13 nM. On to `CCC(C)Nc1nc(-n2ccnn2)nc(Cl)c1-c1c(C)cccc1F` (centres unmarked) [Example 111], for which the IC50 was 29 nM. With `CC(CO)Nc1nc(-n2cc(Br)cn2)nc(Cl)c1-c1c(F)cc(F)cc1F` (centres unmarked) [Example 124], the IC50 stood at 45 nM. Under `Fc1cc(F)c(-c2c(Cl)nc(-n3cccn3)nc2N2CC=CCC2)c(F)c1` [Example 41] stands 38 nM; under `C[C@H](Nc1nc(C(N)=O)nc(Cl)c1-c1c(F)cccc1F)C(F)(F)F` [Example 180], 41 nM.

Take `Cc1ccn(-c2nc(Cl)c(-c3c(F)cccc3Cl)c(NC(C)C)n2)n1` [Example 20]: the IC50 was 39 nM. In the case of `C[C@@H](Nc1nc(C(N)=NO)nc(Cl)c1-c1c(F)cc(F)cc1F)C(F)(F)F` [Example 137], the IC50 was 1.5 nM. For the molecule `CC(C)Nc1nc(-c2cnccn2)nc(Cl)c1-c1c(F)cccc1Cl` [Example 25], the IC50 amounted to 24 nM.

As to `COc1cc(F)c(-c2c(Cl)nc(-c3ccccn3)nc2NC2CCCC2)c(F)c1` [Example 64], the IC50 is 21 nM.

In the case of `CC(C)[C@@H](C)Nc1nc(-n2cccn2)nc(Cl)c1-c1c(F)cccc1Cl` [Example 46], the half-maximal inhibitory concentration (IC50) came out at 38 nM. On to `NC(=NO)c1nc(Cl)c(-c2c(F)cc(F)cc2F)c(NCC(F)(F)F)n1` [Example 173], for which the IC50 was 18 nM. For `CC1CCN(c2nc(-c3ccccn3)nc(Cl)c2-c2c(F)cc(O)cc2F)CC1` [Example 73], the IC50 is 11 nM. Under `Cc1ccc(-c2c(Cl)nc(-n3cccn3)nc2NCC(F)(F)F)c(F)c1` [Example 108] stands 16 nM; under `Cc1nc(-n2cccn2)nc(N[C@@H](C)C(F)(F)F)c1-c1c(F)cc(F)cc1F` [Example 156], 15 nM.

Turning to `Cc1ccn(-c2nc(Cl)c(-c3c(F)cc(F)cc3F)c(NC(C)C)n2)n1` [Example 18], the IC50 came out at 39 nM. In the case of `CCC(C)Nc1nc(-n2ccnn2)nc(Cl)c1-c1c(F)cccc1Cl` (centres unmarked) [Example 107], the IC50 is 39 nM. Under `COc1ccc(-c2c(Cl)nc(C(N)=O)nc2N[C@@H](C)C(F)(F)F)c(Cl)c1` [Example 217] stands 23 nM. For the molecule `CC1CCN(c2nc(-n3cncn3)nc(Cl)c2-c2c(F)cccc2Cl)CC1` [Example 47], the IC50 stood at 26 nM. Under `CC1CCCCN1c1nc(-n2ccnn2)nc(Cl)c1-c1c(F)cccc1F` (centres unmarked) [Example 126] stands 38 nM; under `CCCNc1nc(-n2nc(C)cc2C(=O)OCC)nc(Cl)c1-c1ccc(C)cc1F` [Example 160], 31 nM. With `CC1CCCN1c1nc(-n2cncn2)nc(Cl)c1-c1c(F)cccc1Cl` (centres unmarked) [Example 98] the figure was 46 nM. For `CON=C(N)c1nc(Cl)c(-c2c(F)cc(OC)cc2F)c(N[C@@H](C)C(F)(F)F)n1` [Example 182], the IC50 amounted to 11 nM. Take `Cc1nc(C)n(-c2nc(Cl)c(-c3c(F)cc(F)cc3F)c(N3CCCCC3)n2)n1` [Example 54]: the IC50 came out at 23 nM. As to `Fc1cc(F)c(-c2c(Cl)nc(-n3cncn3)nc2N2CCCCC2)c(F)c1` [Example 52], the IC50 was 22 nM. With `C[C@H](Nc1nc(C(N)=NO)nc(Cl)c1-c1c(F)cccc1Cl)C(F)(F)F` [Example 176], the IC50 was determined as 20 nM. As to `Cc1nc(C)n(-c2nc(Cl)c(-c3c(F)cc(F)cc3F)c(N3CCCC3C)n2)n1` (centres unmarked) [Example 77], the IC50 turned out to be 35 nM. `CC1CCN(c2nc(-n3cnc(N)n3)nc(Cl)c2-c2c(F)cc(F)cc2F)CC1` [Example 94]: the IC50 is 25 nM. On to `CCC(C)Nc1nc(-n2cccn2)nc(Cl)c1-c1ccc(F)cc1F` (centres unmarked) [Example 105], for which the IC50 came out at 45 nM.

For the molecule `CCN(CC)c1nc(-c2cnccn2)nc(Cl)c1-c1c(F)cc(F)cc1F` [Example 26], the IC50 came to 38 nM. Under `C[C@H](Nc1nc(-n2cccn2)nc(F)c1-c1c(F)cc(F)cc1F)C(F)(F)F` [Example 167] stands 20 nM.

The values above are taken from patent US20080146593A1, “Substituted 5-Phenyl Pyrimidines I In Therapy” (Basf Aktiengesellschaft, priority 2005, published 2008).
